Measurements taken from paper PMC8308625, “Preclinical Studies in Anti-Trypanosomatidae Drug Development” (Pharmaceuticals, 2021).
Read-outs that look alike come from different tables or passages of the source.

Columns and labels:
[1] = tested on: T. brucei; assay: Growth inhibition of T. brucei bloodstream form trypomastigotes (resazurin); type: cell-based, Trypanosoma brucei brucei; details: for EC50: read-out: EC50 ± SD T. brucei
Method: Compounds were dissolved in dimethylsulfoxide (DMSO).

[2] = tested on: T. cruzi; details: read-out: EC50 ± SD T. cruzi, cited from earlier work
[3] = tested on: L. infantum reference strain (MHOM/BR/2002/LPC-RPV); assay: Growth inhibition of L. infantum reference strain promastigotes (resazurin); details: for Selectivity Index MΦ/Lin–Ref: EC50 mammalian cell line/EC50 L. infantum reference strain; for Selectivity Index MΦ/Reference: EC50 J774.1 macrophages versus L. infantum reference strain
[4] = tested on: L. braziliensis; details: read-out: EC50 ± SD L. brazils, cited from earlier work
[5] = tested on: L. amazonensis; assay: Growth inhibition of L. amazonensis promastigotes (resazurin); details: for Selectivity Index MΦ/L. amaz: EC50 mammalian cell line/EC50 L. amazonensis
[6] = tested on: L. infantum veterinary isolate (MCAN_UY_2015_gPL8); assay: Growth inhibition of L. infantum veterinary isolate promastigotes (resazurin); details: for Selectivity Index MΦ/Veterinary: EC50 J774.1 macrophages versus L. infantum veterinary isolate; for EC50: Leishmania infantum
[7] = tested on: J774.1 murine macrophages; assay: Nonspecific cytotoxicity in murine macrophages (MTT); details: Mus musculus, J774.1, read-out: EC50 ± SD MΦ
Method: (§1) Cell viability was then assessed using the 3-(4,5-dimethylthiazol-2-yl)-2,5-diphenyltetrazolium bromide (MTT) colorimetric assay [1]. […] All assays were performed in triplicate [35].

[8] = mice, 796 150 mg/kg oral, Cyclophosphamide intraperitoneal positive control
From the text: At least two slides of the cell suspension per animal were made. The air-dried slides were stained with Giemsa stain (5% in phosphate buffer, pH 7.4) and examined at 1000× magnification. Small round or oval bodies, the size of which ranged from about 1/5 to 1/20 of the diameter of a polychromatic erythrocyte (PCE), were counted as micronuclei. A total of 1000 PCEs were scored per animal by the same observer for determining the frequencies of micronucleated polychromatic erythrocytes (MNPCEs). […] For statistical analysis, the homogeneity of variances of data was tested by the analysis of variance (ANOVA) test (p < 0.05) using the EpiInfo (3.5.1) software.

[9] = tested on: T. b. brucei; details: ref Veale and Hoppe, 2018; read-out: EC50 T. b. brucei; cited from earlier work
[10] = Nonspecific cytotoxicity in murine macrophages (MTT); details: mouse, J774.1 murine macrophages
Method: as §1

[11] = design: method as in data provided by the DNDi program, non-published; details: ref data provided by the DNDi program, non-published; cited from earlier work
[12] = Table 3, thiazolidene hydrazines, ref [13],[16],[19],[23],[25]
[13] = read-out: EC50 ± SD Lin–Ref, Table 3, thiazolidene hydrazines, L. infantum reference strain
[14] = Table 4, curcuminoids, ref [14]
[15] = read-out: EC50 ± SD Lin–Ref, Table 4, curcuminoids, L. infantum reference strain
[16] = Leishmania infantum, read-out: EC50 ± SD Lin–Ref
[17] = Leishmania infantum, read-out: EC50 L. infantum Reference
[18] = read-out: EC50 L. infantum Veterinary

**Q.** Which EC50 ([1]; Table 3, thiazolidene hydrazines) does the source give for `C=CCNC(=S)NN=CC(C)=Cc1ccco1` [Compound 909] here?
**A.** 19 ± 1 µM

**Q.** And the EC50 [2, 12]?
**A.** 6 ± 1 µM

**Q.** And the EC50 [3, 13]?
**A.** 10 µM

**Q.** For `O=C1C(=CC=Cc2cccs2)CCC1=CC=Cc1cccs1` [Compound 1018], which EC50 ([1]; Table 4, curcuminoids) is on record?
**A.** 15 ± 2 µM

**Q.** What about the EC50 [2, 14] of the same compound?
**A.** 0.04 ± 0.01 µM

**Q.** What about the EC50 [4, 14] of the same compound?
**A.** 11 ± 3 µM

**Q.** What about the EC50 [3, 15] of the same compound?
**A.** < 0.3 µM

**Q.** For `O=C1C(=CC=Cc2ccco2)CCC1=CC=Cc1ccco1` [Compound 1223], which “trypanosomicidal effect on T. brucei” value [1] is on record?
**A.** no trypanosomicidal effect

**Q.** What about the EC50 [2, 14] of the same compound?
**A.** 5 ± 2 µM

**Q.** What about the EC50 [4, 14] of the same compound?
**A.** 16 ± 4 µM

**Q.** What about the EC50 ([5]; read-out: EC50 ± SD L. amaz, Table 4, curcuminoids) of the same compound?
**A.** 18 ± 4 µM

**Q.** What about the EC50 [3, 15] of the same compound?
**A.** < 0.3 µM

**Q.** What about the “growth inhibitory / trypanosomicidal effect on the L. infantum canine-derived isolate” value [6] of the same compound?
**A.** no trypanosomicidal effect

**Q.** What does the source list for `O=C1C(=CC=Cc2cccs2)CCCC1=CC=Cc1cccs1` [Compound 1245]?
**A.** EC50 ([1]; Table 4, curcuminoids): 16 ± 3 µM; EC50 [2, 14]: 0.6 ± 0.2 µM; EC50 [4, 14]: 16 ± 1 µM; EC50 [3, 15]: < 0.3 µM

**Q.** With `O=C(NN=CC=Cc1ccco1)c1cnn(-c2ccccc2)c1` [Compound 1366] as the compound, how does the EC50 [2, 12] read?
**A.** 12 ± 2 µM

**Q.** What does the source list for `Cc1ccc(S(=O)(=O)NN=CC=Cc2ccco2)cc1` [Compound 1369]?
**A.** EC50 [2, 12]: 15 ± 5 µM; EC50 [3, 13]: 8 ± 2 µM

**Q.** For `O=C(C=Cc1ccsc1)C=Cc1ccsc1` [Compound 1387], which EC50 ([1]; Table 4, curcuminoids) is on record?
**A.** 0.7 ± 0.1 µM

**Q.** What about the EC50 [2, 14] of the same compound?
**A.** 16 ± 2 µM

**Q.** With `O=C(C=CC=Cc1ccco1)C=CC=Cc1cccs1` [Compound 1414] as the compound, how does the EC50 ([1]; Table 4, curcuminoids) read?
**A.** 16 µM

**Q.** And the EC50 [2, 14]?
**A.** 12 ± 1 µM

**Q.** With `COc1cc(/C=C/C(=O)CC(=O)/C=C/c2ccc(O)c(OC)c2)ccc1O` [Curcumin, reference compound] as the compound, how does the EC50 ([1]; Trypanosoma brucei, Table 4, curcuminoids) read?
**A.** 8 ± 1 µM

**Q.** And the EC50 [2, 14]?
**A.** 6 ± 1 µM

**Q.** What about the EC50 [4, 14] of the same compound?
**A.** 6 ± 1 µM

**Q.** What about the EC50 [7] of the same compound?
**A.** 10 ± 2 µM

**Q.** What about the “Selectivity Index MΦ/L. amaz” value [5] of the same compound?
**A.** 2

**Q.** And the “Selectivity Index MΦ/Lin–Ref” value [3]?
**A.** 2

**Q.** And the EC50 [3, 16]?
**A.** 5 ± 1 µM

**Q.** For `O=P1(N(CCCl)CCCl)NCCCO1` (centres unmarked) [Cyclophosphamide, reference compound], which “Media Mn/Mouse ± SD” value [8] is on record?
**A.** 36 ± 2

**Q.** What about the “Number EPMn (total polychromatic micronucleated erythrocytes in the 5 assays)” value ([8]; 5000 EPC observed) of the same compound?
**A.** 180

**Q.** With `CS(=O)(=O)c1ccc(C(=O)N(C[C@H]2CCCO2)c2nc3ccccc3s2)cc1[N+](=O)[O-]` [MMV688761, N-(1,3-Benzothiazol-2-yl)-4-methylsulfonyl-3-nitro-N-[[(2R)-oxolan-2-yl]methyl]benzamide] as the compound, how does the EC50 [9] read?
**A.** 11 µM

**Q.** And the EC50 at 48 h [10]?
**A.** > 50 µM

**Q.** And the “Selectivity Index MΦ/Reference” value [3]?
**A.** >10

**Q.** And the EC50 [3, 17]?
**A.** 4.9 ± 0.1 µM

**Q.** And the “Selectivity Index MΦ/Veterinary” value [6]?
**A.** >13

**Q.** What about the EC50 [6, 18] of the same compound?
**A.** 3.9 ± 0.3 µM

**Q.** Which “pharmacokinetics” value [11] does the source give for `CNc1nnc(Sc2cnn(-c3ccccc3)c(=O)c2Cl)s1` [MMV688763, 4-Chloro-5-{[5-(methylamino)-1,3,4-thiadiazol-2-yl]sulfanyl}-2-phenyl-2,3-dihydropyridazin-3-one] here?
**A.** pharmacokinetic problems

**Q.** What about the EC50 at 48 h [10] of the same compound?
**A.** > 50 µM

**Q.** What about the “Selectivity Index MΦ/Reference” value [3] of the same compound?
**A.** >24

**Q.** What about the EC50 [3, 17] of the same compound?
**A.** 2.1 ± 0.2 µM

**Q.** What about the “Selectivity Index MΦ/Veterinary” value [6] of the same compound?
**A.** >56

**Q.** And the EC50 [6, 18]?
**A.** 0.9 ± 0.1 µM

**Q.** What does the source list for `CC1CS(=O)(=O)CCN1/N=C/c1ccc([N+](=O)[O-])o1` (centres unmarked) [Nifurtimox, reference compound]?
**A.** EC50 [2, 12]: 7 ± 2 µM; EC50 [4, 12]: 6 ± 2 µM; EC50 [7]: 200 ± 9 µM; Selectivity Index MΦ/L. amaz [5]: 33; Selectivity Index MΦ/Lin–Ref [3]: 33; EC50 [3, 16]: 6 ± 1 µM; Selectivity Index MΦ/Lin–Vet ([6]; EC50 mammalian cell line/EC50 L. infantum veterinary isolate): 20; EC50 ([6]; read-out: EC50 ± SD Lin–Vet): 10 ± 2 µM
